Structures are written as SMILES. ≈ marks a conversion by molar mass, not a printed value. Bounds are passed on as bounds.

The results in this text go back to ChEMBL document CHEMBL6127042, “Design, synthesis and antimycobacterial activity of novel benzothiazinones with improved water solubility” (Eur J Med Chem, 2024).

The subject of data set [1] is Mycobacterium tuberculosis. Description: Antitubercular activity against multidrug resistant Mycobacterium tuberculosis 16833 assessed as bacterial growth inhibition incubated for 7 days in 7H9 medium by alamar blue staining based microplate fluorometric analysis. Format: functional. The following applies: Mycobacterium tuberculosis, 16833, 168 h; time 7 day.
Data set [2] deals with Mycobacterium tuberculosis. In words: Antitubercular activity against multidrug resistant Mycobacterium tuberculosis 16995 assessed as bacterial growth inhibition incubated for 7 days in 7H9 medium by alamar blue staining based microplate fluorometric analysis. The format is functional. The note with it: Mycobacterium tuberculosis, 16995, 168 h; time 7 day.
A short description of data set [3]: Selectivity index, ratio of CC50 for cytotoxicity against African green monkey Vero cells to MIC for antimycobacterial activity against multidrug resistant Mycobacterium tuberculosis 16833. Format: toxicity, cell-based. The note with it: read-out: Selectivity Index.

`NNC(=O)c1ccncc1` [ISONIAZID]: the MIC in data set [1] and in data set [2] was > 72.9 µM each time.
Consider `C[C@H](NC(=O)CON=C1CCC(CN2CCN(c3nc(=O)c4cc(C(F)(F)F)cc([N+](=O)[O-])c4s3)CC2)CC1)C(=O)OC(C)(C)C` (stereo partly drawn), for which the MIC is 0.14 µM (≈ 0.0939 µg/mL) in data set [1] and 0.167 µM (≈ 0.112 µg/mL) in data set [2]. Also, the selectivity ratio in data set [3] is > 682.
In the case of `CC(C)(C)OC(=O)CNC(=O)C(C)(C)ON=C1CCC(CN2CCN(c3nc(=O)c4cc(C(F)(F)F)cc([N+](=O)[O-])c4s3)CC2)CC1` (stereo not drawn), the MIC in data set [1] is 0.067 µM (≈ 0.0459 µg/mL); in data set [2], 0.066 µM (≈ 0.0452 µg/mL). Moreover, in data set [3], the selectivity ratio is > 1400.
Taken in the same sequence, the figures for `CC(C)(C)OC(=O)CNC(=O)CON=C1CCC(CN2CCN(c3nc(=O)c4cc(C(F)(F)F)cc([N+](=O)[O-])c4s3)CC2)CC1` (stereo not drawn) were 0.239 µM (≈ 0.157 µg/mL), 0.03 µM (≈ 0.0197 µg/mL) and > 408.
`O=C(O)CNC1CCC(CN2CCN(c3nc(=O)c4cc(C(F)(F)F)cc([N+](=O)[O-])c4s3)CC2)CC1` (stereo not drawn): the MIC came out at 0.087 µM (≈ 0.0461 µg/mL) in data set [1] and 0.095 µM (≈ 0.0503 µg/mL) in data set [2]. Moreover, the selectivity ratio in data set [3] is > 1390.
Taken in the same sequence, the figures for `CC(C)(C)OC(=O)CCON=C1CCC(CN2CCN(c3nc(=O)c4cc(C(F)(F)F)cc([N+](=O)[O-])c4s3)CC2)CC1` (stereo not drawn) were 0.031 µM (≈ 0.019 µg/mL), 0.068 µM (≈ 0.0417 µg/mL) and > 3370.
Taken in the same sequence, the figures for `O=C(O)CON=C1CCC(CN2CCN(c3nc(=O)c4cc(C(F)(F)F)cc([N+](=O)[O-])c4s3)CC2)CC1` (stereo not drawn) were 0.057 µM (≈ 0.031 µg/mL), 0.057 µM (≈ 0.031 µg/mL) and > 2070.
For `CO[C@H]1/C=C/O[C@@]2(C)Oc3c(C)c(O)c4c(O)c(c(/C=N/N5CCN(C)CC5)c(O)c4c3C2=O)NC(=O)/C(C)=C\C=C\[C@H](C)[C@H](O)[C@@H](C)[C@@H](O)[C@@H](C)[C@H](OC(C)=O)[C@@H]1C` [RIFAMPIN], the MIC in data set [1] and in data set [2] was > 12.2 µM throughout.
For `C[C@H](NC(=O)C(C)(C)ON=C1CCC(CN2CCN(c3nc(=O)c4cc(C(F)(F)F)cc([N+](=O)[O-])c4s3)CC2)CC1)C(=O)OC(C)(C)C` (stereo partly drawn), the values for the MIC in data set [1] and in data set [2] were < 0.023 µM and 0.03 µM (≈ 0.021 µg/mL), respectively. Further, the selectivity ratio in data set [3] is > 3980.
As for `O=c1nc(N2CCN(CC3CCCCC3)CC2)sc2c([N+](=O)[O-])cc(C(F)(F)F)cc12` [MACOZINONE], the MIC in data set [1] and in data set [2] was < 0.035 µM in each case. Further, the selectivity ratio in data set [3] was > 4010.
For `CC(C)(C)OC(=O)NCCON=C1CCC(CN2CCN(c3nc(=O)c4cc(C(F)(F)F)cc([N+](=O)[O-])c4s3)CC2)CC1` (stereo not drawn), the MIC in data set [1] was < 0.025 µM; in data set [2], 0.041 µM (≈ 0.0258 µg/mL). In addition, the selectivity ratio in data set [3] was > 4080.
`O=C(O)CNC(=O)CCON=C1CCC(CN2CCN(c3nc(=O)c4cc(C(F)(F)F)cc([N+](=O)[O-])c4s3)CC2)CC1` (stereo not drawn): the MIC was 0.21 µM (≈ 0.129 µg/mL) in data set [1] and 0.425 µM (≈ 0.261 µg/mL) in data set [2]. The selectivity ratio in data set [3] was > 496.
In the same order, the values of `CC(C)(ON=C1CCC(CN2CCN(c3nc(=O)c4cc(C(F)(F)F)cc([N+](=O)[O-])c4s3)CC2)CC1)C(=O)O` (stereo not drawn) are 0.375 µM (≈ 0.214 µg/mL), 0.109 µM (≈ 0.0623 µg/mL) and > 299.
In the case of `O=C(O)CCON=C1CCC(CN2CCN(c3nc(=O)c4cc(C(F)(F)F)cc([N+](=O)[O-])c4s3)CC2)CC1` (stereo not drawn), the MIC was 0.212 µM (≈ 0.118 µg/mL) in data set [1] and 0.221 µM (≈ 0.123 µg/mL) in data set [2]. Moreover, the selectivity ratio in data set [3] is > 542.
In the same order, the values of `CC(C)(C)OC(=O)CNC(=O)CCON=C1CCC(CN2CCN(c3nc(=O)c4cc(C(F)(F)F)cc([N+](=O)[O-])c4s3)CC2)CC1` (stereo not drawn) are 0.048 µM (≈ 0.0322 µg/mL), 0.093 µM (≈ 0.0624 µg/mL) and > 1990.
